Here are results for five molecules from US4244869A, “Benzodiazepine derivatives and process of making them” (Kali-Chemie A.G., priority 1972, dated 1981).

The test system of data set [1] is mice. Kind of data set: Prolongation of hexobarbital induced sleep (C.N.S. quieting properties). The note with it: for Quotient 1: ED50 elongation of hexobarbital induced sleep / ED50 isolation aggressiveness; for ED50: Mus musculus, po, 0.5 h, p.o., 30 min before hexobarbital 64 mg/kg i.v., prolongation by a factor of 4 in half of the mice. Type of data set: in vivo. The procedure: (5) C.N.S. quieting properties
(Prolongation of hexobarbital induced sleep)
The test substance was applied to the mice per os. The animals after 30 minutes received additionally an intravenous injection of 64 mg/kg of hexobarbital. […] The duration of this lateral position was then compared with the control group which had been treated only with hexobarbital.
As ED50 that dose was defined at which with one-half of the animals a prolongation of the lateral position occurred by a factor of 4 as against the control group (G. M. Everett, Nature 177, 1238 [1956]).

Data set [2] concerns mice. Description: Maximum electroshock (anticonvulsive). Type of data set: in vivo. The note with it: Mus musculus, po, 1 h, orally, 60 min before electroshock. As to the method:
(§1) (2) Anti-convulsive properties
The test substances were applied orally to the animals. Sixty minutes after application electrodes were fastened to the ears of the mice and an electric shock was effected. The dose was then determined at which in half of the animals tonic contractions in the rear extremities were prevented. The computation of the ED50 was again effected by means of the above-noted probit analysis (modified according to J. Swinyard, J. Pharmacol. exptl. Therap.-106, 93 [1952]).
(§2) The results obtained by these tests show the anticonvulsive activity of the test substances. According to the medical literature this is an important criteria for the appraising of the clinical effectiveness of tranquilizers.

Data set [3] concerns mice. Kind of data set: Pentetrazol induced convulsions (anticonvulsive). Type of data set: in vivo. The note with it: Mus musculus, po, 1 h, p.o., 60 min before pentetrazol 100 mg/kg s.c., read-out: Pentetrazol spasm ED50. The procedure: as §1
(a) Pentetrazol induced convulsions
The compounds were tested after per oral administration to groups of six mice each. Sixty minutes after application of the test compounds pentetrazol was injected subcutaneously at a dosage of 100 mg/kg. The appearance of clonic and tonic convulsions was checked through a total observation time of 45 minutes. The protective effects of the compounds against convulsions were determined in control tests with comparison compounds. The effective dose ED50 was computed from the probit logarithmic dosage curves (modified according to J. E. Blum et al. Arzneimittel-Forsch. 23, 377 [1973]).
as §2

Data set [4] in a line: Acute seven-day toxicity (LD50), single oral application. The note with it: mouse, in vivo, p.o., mice. On the set-up: species or system mice (white NMRI). As to the method: The acute seven-day toxicity is determined by a single application per os and intraperitoneally to white fasting NMRI mice. The computation of the LD50 values was effected via EDV by a probit analysis (Cavalli-Sforza, publisher Gustav Fischer, 1964, Grundbegriffe der Biometrie).

Data set [5] relates to mice. Description: Test de la traction (musculotropic properties). Type of data set: in vivo. The note with it: for Quotient 2: ED50 test de la traction / ED50 isolation aggressiveness; for ED50: Mus musculus, po, 2 h, p.o., after 120 minutes, mice. As to the method:
(4) Musculotropic properties
This test is called the "test de la traction". In this test the compounds were administered to the mice per os. After 120 minutes the mice were suspended with their front paws from a thin horizontally extending wire. […] These tests have the purpose to check the effects on the muscle tone by the compounds.
The ED50 values was effected via EDV by a probit analysis.

The subject of data set [6] is mice. Description: Isolation aggressiveness (anxiety relieving and anti-aggressive activity). Type of data set: in vivo. To be noted: Mus musculus, po, 0.5 h; orally, after 30 minutes, isolated mice. The procedure: (3) Anxiety relieving and anti-aggressive activity. Inhibition of the aggressiveness of a mouse caused by isolation.
Before the test the mice were kept for four weeks in strict isolation in single cages. After that time the mice which had been kept in isolation spontaneously attacked other mice which were introduced then and which had not been isolated. The test substances were administered to the isolated mice orally.
The results shown in these tests permit useful conclusions regarding the anxiety, stress and tension-relieving properties of the compound.

In general, ED50 refers to the dose at which the effect has come halfway, by size or by number of responders. Broadly, the LD50 is the dose expected to kill half of the subjects tested.

Each structure is given as a SMILES string.

On to `COCC1CN=C(c2ccccc2Cl)c2cc(Br)ccc2N1C` (stereo not drawn) [Compound 1, 7-bromo-1-methyl-2-methoxymethyl-5-(2'-chlorophenyl)-1H-2,3-dihydro-1,4-benzodiazepin], for which, in the data set with mice [1], the “Quotient 1” value is given as 4.9. Besides, the median effective dose (ED50) in the data set with mice [1] was 15.2 mg/kg; in the data set with mice [2], 3 mg/kg; in the data set on mice [3], 0.9 mg/kg; with mice [5], 87 mg/kg; in the data set on mice [6], 3.1 mg/kg. Besides, in data set [4], the LD50 at 168 h is 1580 mg/kg. In the data set with mice [5], the “Quotient 2” value is 28.1.
Consider `COCC1CN=C(c2ccccc2F)c2cc(Br)ccc2N1C` (stereo not drawn) [Compound 3, 7-bromo-1-methyl-2-methoxymethyl-5-(2'-fluorophenyl)-1H-2,3-dihydro-1,4-benzodiazepin], for which, in the data set on mice [1], the “Quotient 1” value is 0.9. In addition, the ED50 in the data set on mice [1] was determined as 10.6 mg/kg; with mice [2], 5 mg/kg; in the data set with mice [3] it was 0.5 mg/kg; in the data set with mice [5], 58.3 mg/kg; with mice [6], 10.7 mg/kg. The same molecule had an LD50 at 168 h in data set [4] of 1580 mg/kg. The “Quotient 2” value with mice [5] stood at 5.4.
As for `CCOCC1CN=C(c2ccccc2Cl)c2cc(Br)ccc2N1C` (stereo not drawn) [Compound 2, 7-bromo-1-methyl-2-ethoxymethyl-5-(2'-chlorophenyl)-1H-2,3-dihydro-1,4-benzodiazepin], the “Quotient 1” value with mice [1] turned out to be 10.2. The 50% effective dose (ED50) is 41.9 mg/kg with mice [1]; 24.5 mg/kg in the data set on mice [2]; 2.2 mg/kg with mice [3]; 34.9 mg/kg with mice [5]; 4.1 mg/kg with mice [6]. Besides, the LD50 at 168 h in data set [4] is > 1470 mg/kg. Also, the “Quotient 2” value with mice [5] stood at 8.5.
As for `COCC1CN=C(c2ccccc2Cl)c2cc(Cl)ccc2N1C` (stereo not drawn) [Standard I, 7-chloro-1-methyl-2-methoxymethyl-5-(2'-chlorophenyl)-1H-2,3-dihydro-1,4-benzodiazepin, reference compound], in the data set on mice [1], the “Quotient 1” value is 0.17. Also, the ED50 with mice [1] stood at 11.7 mg/kg; with mice [2], 26 mg/kg; in the data set with mice [3] it was 2 mg/kg; in the data set on mice [5] it was 163 mg/kg; with mice [6], 68 mg/kg. The same molecule gave an LD50 at 168 h in data set [4] of 1780 mg/kg. Besides, in the data set on mice [5], the “Quotient 2” value is reported as 2.4.
Take `CN1C(=O)CN=C(c2ccccc2)c2cc(Cl)ccc21` [Standard II, 7-chloro-1-methyl-5-phenyl-1,3-dihydro-2H-1,4-benzodiazepin-2-one, reference compound]: the “Quotient 1” value with mice [1] turned out to be 0.42. For the same molecule, the ED50 came out at 1.5 mg/kg in the data set with mice [1]; 9 mg/kg in the data set with mice [2]; 0.5 mg/kg in the data set on mice [3]; 4.2 mg/kg with mice [5]; 3.6 mg/kg in the data set on mice [6]. Further, the “Quotient 2” value in the data set on mice [5] is on record as 1.2.
